Here are results for eleven compounds from ChEMBL document CHEMBL1201862, “PubChem BioAssay data set” (2004).

Some test systems named below: EKVX; HOP-62; HT-29; IGROV-1; LOX IMVI; NCI-H23; NCI-H522; OVCAR-8; RPMI-8226; RXF 393; SF-268; SF-539; SK-MEL-5; SN12C; SNB-19; SW-620; UACC-257; UACC-62; HCT-116.
Common to all, as to test: NCI tumour cell line growth inhibition, 48 h

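Assay format: 96-well plates, 48-hour exposure. The concentration for 50% growth inhibition is given as GI50.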 Active and inactive are the calls of the source. No stated cut-off is given here; in the data, active = GI50 up to about 1.1 µM and inactive = higher.

For the compound `COC(=O)CCC(=O)Nc1cccc(C(F)(F)F)c1`, the GI50 in the assay with EKVX, with HOP-62, with HT-29, with IGROV-1, in the assay with LOX IMVI and in the assay on NCI-H23 was > 100 µM (inactive) in each case. Also, the GI50 in the assay on NCI-H522, with OVCAR-8, in the assay on RPMI-8226, in the assay with RXF 393, with SF-268 and with SF-539 was > 100 µM (inactive) in each case. Besides, the GI50 in the assay on SK-MEL-5, in the assay with SN12C, with SNB-19, in the assay on SW-620, in the assay with UACC-257 and with UACC-62 was > 100 µM (inactive) each time.

Turning to `COc1ccc(CC(COS(=O)(=O)c2ccc(C)cc2)NS(=O)(=O)c2ccc(C)cc2)cc1` (stereo unspecified), the GI50 in the assay on EKVX is 14.6 µM (inactive); with HCT-116, 12.8 µM (inactive); in the assay on HOP-62, 16.7 µM (inactive); in the assay on HT-29 it was 10.2 µM (inactive); with IGROV-1 it was 7.87 µM (inactive); with LOX IMVI it was 19.5 µM (inactive). The GI50 with NCI-H23 was 13.7 µM (inactive); with NCI-H522, 7.01 µM (inactive); with OVCAR-8 it was 15.3 µM (inactive); with RPMI-8226, 15.2 µM (inactive); in the assay on RXF 393 it was 3.27 µM (inactive); in the assay with SF-268, 12.2 µM (inactive). Moreover, the GI50 is 17.1 µM (inactive) in the assay on SF-539; 9.02 µM (inactive) in the assay on SK-MEL-5; 15.4 µM (inactive) in the assay with SN12C; 12.6 µM (inactive) in the assay on SNB-19; 10.9 µM (inactive) in the assay with SW-620; 15.8 µM (inactive) in the assay on UACC-257. Besides, the GI50 in the assay with UACC-62 is 6.98 µM (inactive).

Take `O=C1CCC2(c3ccc(F)cc3)Nc3ncccc3N12` (stereo unspecified): the GI50 in the assay on EKVX, in the assay with HOP-62, in the assay on HT-29, in the assay on IGROV-1, with LOX IMVI and in the assay on NCI-H23 was > 100 µM (inactive) in each case. Besides, the GI50 in the assay with NCI-H522, in the assay with OVCAR-8, in the assay with RPMI-8226, in the assay on RXF 393, in the assay on SF-268 and in the assay with SF-539 was > 100 µM (inactive) throughout. Further, the GI50 in the assay with SK-MEL-5, in the assay on SN12C, in the assay with SW-620, in the assay with UACC-257 and in the assay with UACC-62 was > 100 µM (inactive) throughout.

Take `FC(F)(F)c1nc2cc(SSc3cc4nc(C(F)(F)F)[nH]c4cc3Cl)c(Cl)cc2[nH]1`: the GI50 in the assay on EKVX, with HCT-116, in the assay on HOP-62, with HT-29, in the assay with IGROV-1 and in the assay with LOX IMVI was > 100 µM (inactive) in each case. Besides, the GI50 with NCI-H23 was > 100 µM (inactive); in the assay with NCI-H522, 66.4 µM (inactive); in the assay on OVCAR-8, > 100 µM (inactive); in the assay on RPMI-8226, > 100 µM (inactive); in the assay with RXF 393, > 100 µM (inactive); with SF-268, > 100 µM (inactive). Also, the GI50 with SF-539 was > 100 µM (inactive); in the assay with SK-MEL-5, 65.3 µM (inactive); with SN12C, > 100 µM (inactive); in the assay with SNB-19, > 100 µM (inactive); with SW-620, > 100 µM (inactive); in the assay with UACC-257 it was 93.1 µM (inactive). Further, the GI50 with UACC-62 was > 100 µM (inactive).

For `C=C1CC2(CCCC3(CC(=C)C(=O)O3)C2(C)C)OC1=O` (stereo unspecified), the GI50 in the assay on EKVX is 4.02 µM (inactive); with HCT-116 it was 1.44 µM (inactive); in the assay on HOP-62 it was 13.9 µM (inactive); in the assay with HT-29, 3.82 µM (inactive); in the assay on IGROV-1 it was 8.83 µM (inactive); in the assay on LOX IMVI, 1.69 µM (inactive). In addition, the GI50 is 2.89 µM (inactive) in the assay with NCI-H23; 1.46 µM (inactive) in the assay on NCI-H522; 1.38 µM (inactive) in the assay on OVCAR-8; 0.47 µM (active) with RPMI-8226; 3.86 µM (inactive) in the assay on RXF 393; 19.2 µM (inactive) in the assay with SF-268. The GI50 in the assay on SF-539 was 3.26 µM (inactive); with SK-MEL-5, 14.8 µM (inactive); in the assay with SN12C, 3.03 µM (inactive); with SNB-19, 17.3 µM (inactive); in the assay on SW-620, 1.39 µM (inactive); in the assay with UACC-257, 1.85 µM (inactive). Further, the GI50 with UACC-62 is 2 µM (inactive).

For the compound `COc1ccc(/C(Cl)=C(\C=O)c2ccc([N+](=O)[O-])cc2)cc1`, the GI50 with EKVX was 21.8 µM (inactive); in the assay with HOP-62 it was 21.5 µM (inactive); in the assay with HT-29, 4.57 µM (inactive); in the assay on IGROV-1, 22.4 µM (inactive); in the assay on LOX IMVI, 3.49 µM (inactive); with NCI-H23, 14 µM (inactive). In addition, the GI50 in the assay on NCI-H522 is 4.36 µM (inactive); with OVCAR-8, 10.9 µM (inactive); in the assay with RPMI-8226, 2.37 µM (inactive); in the assay on RXF 393, 11.5 µM (inactive); with SF-268 it was 20.5 µM (inactive); in the assay on SF-539 it was 12.6 µM (inactive). Moreover, the GI50 with SK-MEL-5 is 13.2 µM (inactive); in the assay with SN12C it was 12.3 µM (inactive); in the assay with SNB-19 it was 18.5 µM (inactive); in the assay on SW-620, 4.34 µM (inactive); with UACC-257, 10.1 µM (inactive); in the assay with UACC-62, 7.67 µM (inactive).

Regarding `Cc1cc(C)c(C(=O)OC(c2ccccc2)C(c2ccccc2)N2CCOCC2)c(C)c1` (stereo unspecified), the GI50 in the assay with EKVX, with HCT-116, with HOP-62, with HT-29, with IGROV-1 and in the assay with LOX IMVI was > 100 µM (inactive) each time. The GI50 in the assay with NCI-H23 was > 100 µM (inactive); in the assay on NCI-H522, > 100 µM (inactive); in the assay on RPMI-8226, 6.01 µM (inactive); in the assay with RXF 393 it was 91 µM (inactive); in the assay with SF-268, > 100 µM (inactive); in the assay with SF-539, > 100 µM (inactive). The GI50 in the assay on SN12C, with SNB-19, in the assay with SW-620, with UACC-257 and in the assay on UACC-62 was > 100 µM (inactive) each time.

In the case of `CN1C(=O)C2C=CC1C1CCC2N(C)C1=O` (stereo unspecified), the GI50 with EKVX, with HCT-116, with HT-29, in the assay with IGROV-1, in the assay on LOX IMVI and with NCI-H23 was > 100 µM (inactive) each time. For the same compound, the GI50 in the assay on NCI-H522, in the assay with OVCAR-8, with RPMI-8226, in the assay with RXF 393, in the assay on SF-268 and in the assay on SF-539 was > 100 µM (inactive) throughout. Moreover, the GI50 in the assay with SK-MEL-5, in the assay on SN12C, in the assay with SNB-19, in the assay with SW-620, with UACC-257 and in the assay with UACC-62 was > 100 µM (inactive) each time.

For `COc1ccc(-c2nc(SCC(=O)N/N=C/c3ccc([N+](=O)[O-])cc3)[nH]c2-c2ccc(OC)cc2)cc1`, the GI50 in the assay on EKVX was 16.4 µM (inactive); in the assay with HCT-116, 8.49 µM (inactive); in the assay with HOP-62 it was 16.7 µM (inactive); in the assay on HT-29, 8.41 µM (inactive); in the assay with IGROV-1, 10.8 µM (inactive); with LOX IMVI, 14 µM (inactive). Moreover, the GI50 was 21.9 µM (inactive) with NCI-H23; 6.95 µM (inactive) in the assay on NCI-H522; 17.7 µM (inactive) in the assay on OVCAR-8; 8.91 µM (inactive) with RPMI-8226; 11.4 µM (inactive) in the assay with RXF 393; 25.7 µM (inactive) in the assay with SF-268. Also, the GI50 in the assay on SF-539 is 11.9 µM (inactive); in the assay with SK-MEL-5, 6.27 µM (inactive); in the assay on SN12C, 16.6 µM (inactive); in the assay on SNB-19, 24.4 µM (inactive); in the assay with SW-620, 12.6 µM (inactive); in the assay with UACC-257, 16.4 µM (inactive). Further, the GI50 in the assay with UACC-62 was 7.01 µM (inactive).

Consider `Cc1cc(=O)n(-c2cc3cccccc-3n2)[nH]1`, for which the GI50 in the assay on EKVX was 12.5 µM (inactive); in the assay on HCT-116 it was 2.16 µM (inactive); with HOP-62 it was 4.34 µM (inactive); in the assay with HT-29, 13.5 µM (inactive); in the assay on IGROV-1, 2.78 µM (inactive); in the assay with LOX IMVI, 9.64 µM (inactive). The GI50 in the assay on NCI-H23 was 4.8 µM (inactive); with NCI-H522, 2.68 µM (inactive); in the assay on OVCAR-8 it was 5.53 µM (inactive); with RPMI-8226, 8 µM (inactive); in the assay on RXF 393 it was 2.36 µM (inactive); in the assay on SF-539, 5.47 µM (inactive). In addition, the GI50 is 2.05 µM (inactive) in the assay with SK-MEL-5; 5.74 µM (inactive) in the assay on SN12C; 43.6 µM (inactive) with SNB-19; 3.73 µM (inactive) in the assay with SW-620; 5.15 µM (inactive) with UACC-257; 2.84 µM (inactive) in the assay on UACC-62.

On to `NC1CCC[C@H]1O` (stereo partly specified), for which the GI50 in the assay with EKVX, in the assay on HCT-116, in the assay with HOP-62, in the assay with HT-29, with IGROV-1 and in the assay on LOX IMVI was > 100 µM (inactive) in each case. The GI50 with NCI-H23, with NCI-H522, with OVCAR-8, with RPMI-8226, in the assay with RXF 393 and with SF-268 was > 100 µM (inactive) throughout. For the same compound, the GI50 in the assay with SF-539, in the assay on SK-MEL-5, in the assay with SN12C, in the assay with SNB-19, in the assay with SW-620 and with UACC-257 was > 100 µM (inactive) in each case. Also, in the assay on UACC-62, the GI50 was > 100 µM (inactive).
